Test results reported in US10858425B2, “Pan-ELR+ CXC chemokine antibodies” (Eli Lilly and Company, priority 2013, dated 2020).

Key:
[1] = system: SKOV3-Luc ovarian cancer cells; assay: SKOV3-Luc ovarian cancer xenograft model; assay type: in vivo, athymic nude female mice
Procedure: SKOV3-Luc is a human ovary cancer cell line that expresses firefly luciferase gene. SKOV3-Luc cells are often used in vivo to establish human ovarian adenocarcinoma tumor growth.
SKOV3-Luc ovarian cancer cells were mixed 1:1 with matrigel and implanted subcutaneously in the right rear flank of athymic nude female mice at 3.0×10^6 cells per injection. Mice were randomized into 4 groups at baseline according to tumor volume after the xenografts were grown to an average tumor volume of 200 mm^3. Mice received either control IgG4 antibody (2.5 mg/kg once a week), cisplatin (2.5 mg/kg once a week), Antibody 1 (20 mg/kg once a week), or a combination of cisplatin (2.5 mg/kg once a week) and Antibody 1 (20 mg/kg once a week) by intraperitoneal injection.

[2] = target: T1, human CXCR2 (U937-huCXCR2 cells) (Homo sapiens, UniProt P25025); assay: U937-huCXCR2 FLIPR activity of human CXCL8 wild type and mutants; assay type: cell-based; conditions: CXCL8 variant as ligand on U937-huCXCR2 cells
T1 construct: expressed in transfected cells; host or cells: U937 monocytic cell line, retrovirally transduced
T1 sequence (P25025 1-360): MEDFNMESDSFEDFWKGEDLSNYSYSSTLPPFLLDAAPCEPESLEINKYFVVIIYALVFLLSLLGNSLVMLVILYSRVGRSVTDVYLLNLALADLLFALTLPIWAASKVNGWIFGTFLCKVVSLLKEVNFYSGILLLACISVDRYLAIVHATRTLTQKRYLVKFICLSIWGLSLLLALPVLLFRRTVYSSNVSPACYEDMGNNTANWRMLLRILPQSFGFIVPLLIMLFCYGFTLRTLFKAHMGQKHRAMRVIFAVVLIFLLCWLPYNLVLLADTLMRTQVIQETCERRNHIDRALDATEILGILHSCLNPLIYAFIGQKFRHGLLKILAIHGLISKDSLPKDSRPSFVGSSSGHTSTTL
Procedure: Wild type and mutant human CXCL8 are tested for biologic activity and for neutralization by Antibody 1 using the U937-huCXCR2 assay. U937-huCXCR2 is a monocytic cell line transduced with retrovirus for expression of human CXCR2. A description of the U937-huCXCR2 assay is found below under Neutralizing Assays.
CXCL8 mutants are serially diluted in Assay Buffer containing 0.2% BSA in wells of v-bottom 96-well polypropylene plates. Ligand concentrations are 3 times the final assay concentration (final assay concentrations range from 300 to 0.0051 nM). A cell plate and a ligand plate are loaded into a Fluorescent Imaging Plate Reader (FLIPR-3, Molecular Devices) programmed to transfer 50 μL of ligand to wells of the cell plate. Fluorescence is recorded at 1 second intervals for 90 seconds. The change in fluorescence [delta relative fluorescence units (DRFU), Max RFU-Min RFU] is calculated from images 10 to 90. DRFU versus log (ligand concentration) is plotted and EC50 values are determined by nonlinear regression using Graph Pad Prism. Assays are performed in triplicate over three assay plates.

`N.N.[Cl][Pt][Cl]` [Cisplatin, cisplatin] was tested, and the “Average Tumor Volume” value ([1]; Day 14) was 122.65 mm^3, the “Average Tumor Volume” value ([1]; Day 19) was 190.65 mm^3 and the “Average Tumor Volume” value ([1]; Day 22) was 289.15 mm^3. The “Average Tumor Volume” value ([1]; Day 26) was 484.72 mm^3, the “Average Tumor Volume” value ([1]; Day 32) was 806.31 mm^3 and the “Average Tumor Volume” value ([1]; Day 35) was 923.02 mm^3. The “Average Tumor Volume” value ([1]; Day 40) was 941.42 mm^3, the “Average Tumor Volume” value ([1]; Day 43) was 1047.34 mm^3 and the tumor growth inhibition ([1]; compared to isotype control, intraperitoneal, once a week) was “did not show statistically significant tumor growth inhibition”.
“I10A: human CXCL8 point mutant I10A based on SEQ ID NO: 27 [Antibody I10A]” was tested, and the “U937 FLIPR activity EC50” value [2] was “Not Active”.
With “R6A: human CXCL8 point mutant R6A based on SEQ ID NO: 27 [Antibody R6A]” the “U937 FLIPR activity EC50” value [2] was “Not Active”.
With “I40A: human CXCL8 point mutant I40A based on SEQ ID NO: 27 [Antibody I40A]” the “U937 FLIPR activity EC50” value [2] was “Not Active”.
